Measurements published in patent US9277761B2, “Nutrition trace element composition” (priority 2003, dated 2016).
Where two headings read alike, the source gives them in different places.

How the values were obtained:
[1] = cited from earlier work
humans [2] = details: cited from earlier work
[3] = system: T-lymphocytes and natural killer cells; details: humans, 200 μg of selenium a day for eight weeks; cited from earlier work
[4] = Study of 52 patients receiving parenteral nutrition: zinc level in serum and whole blood; assay type: in vivo, humans
Description: In a study of 52 patients receiving parenteral nutrition, whereby the patients had haemorrhages, polytrauma/trauma and tumours, in the Vogtland-Klinikum Plauen GmbH, the trace element status of the patients was determined throughout the course of the therapy on the basis of routine medication and routine supplementation.
The goal was to establish whether the routinely administered trace element substitution led to a satisfactory supply of trace elements. For this purpose, the serum and whole blood levels of the trace elements chromium, iron, fluorine, iodine, copper, manganese, molybdenum, selenium and zinc were determined daily, for a minimum of 3 and a maximum of 18 days.
Throughout the above-mentioned observation period, the patients received the normal routine supplementation with the preparations Inzolen HK, Inzolen® sine NaCL, Selenase® and Unizink®, at various times and in various dosages. The trace elements cobalt, copper, manganese, selenium and zinc were administered by means of these preparations, in addition to the macro elements chloride, magnesium, potassium and sodium.
Corresponding to the previous routine, the Inzolen® administrations were made dependent on the daily determined serum potassium level, with the normal range being targeted. Zinc and selenium administration took place on the basis of experience in certain illness situations. The above-mentioned determination of the further macro element and trace element levels was only intended for retrospective observation of the trace element status, and was not included in the daily decision process for any supplementation.
The following reference ranges were the basis for the evaluation:
The second step was to establish what percent of the patients' trace element levels were below, within and above the reference range throughout the entire observation period (3-18 days).
Moreover, the behaviour curves of the trace element levels in the serum and whole blood of each patient were evaluated, whereby performance of further treatments/therapies (Op, CT, accompanying medication, etc.) was taken into consideration.

humans [5] = details: cited from earlier work; for Outcome of inadvertent intravenous infusion: person
[6] = cited from earlier work; remark: listed apart in the source
rats = details: intravenous administration; cited from earlier work
[7] = oral administration of 1 mg of sodium selenite; cited from earlier work
[8] = system: various experimental animals; details: cited from earlier work
guinea pigs = details: peroral administration; cited from earlier work
rabbits = details: cited from earlier work
mice = details: cited from earlier work
[9] = Ø, entire observation period (3-18 days)
[10] = 20 healthy young men, 160 mg zinc/d for 5 weeks

## [Se] [Selenium]
[1]; in vivo
  Portion of selenium taken in with food that leaves the organism renally: 50-70%
Humans [2]; in vivo, po
  Recommended maximum single oral dose: at most 50 μg of selenium/kg BW
Humans [2]; in vivo
  Dosage seen as harmless: up to 500 μg of selenium a day
  Maximum safe ingestion over a longer time frame (WHO 1996): 400 μg of selenium a day
  Recommended maximum dose for long-term use: at most 5 μg of selenium/kg BW
  Selenium content of whole blood from which symptoms can appear: ≥ 1000 μg/l of whole blood
  Selenium ingestion in areas with chronic selenium poisonings: 3-7 mg of selenium a day
Concluded from the results
  Selenium substitution required (long-term, continuous): 1000 µg/day
Higher versus reduced selenium level
  Tendency towards infection: reduced tendency towards infection
human, in vivo
  Selenium level in the serum: rose up into the reference range
  Selenium whole blood levels: rose only to just below the reference range
[3]
  Formation of the interleukin-2 receptor, lymphocyte proliferation, cell-destroying effect of T-lymphocytes and natural killer cells: increases

## [Zn] [Zinc]
[4]; Day 1
  Zinc in serum, patients Above reference range: 4%
  Zinc in serum, patients Below reference range: 76%
  Zinc in serum, patients Within reference range: 20%
  Zinc in whole blood, patients Above reference range: 10%
  Zinc in whole blood, patients Below reference range: 6%
  Zinc in whole blood, patients Within reference range: 84%
[4]; Day 2
  Zinc in serum, patients Above reference range: 2%
  Zinc in serum, patients Below reference range: 85%
  Zinc in serum, patients Within reference range: 13%
  Zinc in whole blood, patients Above reference range: 8%
  Zinc in whole blood, patients Below reference range: 18%
  Zinc in whole blood, patients Within reference range: 75%
[4]; Day 3
  Zinc in serum, patients Above reference range: 0%
  Zinc in serum, patients Below reference range: 78%
  Zinc in serum, patients Within reference range: 22%
  Zinc in whole blood, patients Above reference range: 8%
  Zinc in whole blood, patients Below reference range: 12%
  Zinc in whole blood, patients Within reference range: 80%
[4]; Day 4
  Zinc in serum, patients Above reference range: 0%
  Zinc in serum, patients Below reference range: 86%
  Zinc in serum, patients Within reference range: 14%
  Zinc in whole blood, patients Above reference range: 5%
  Zinc in whole blood, patients Below reference range: 14%
  Zinc in whole blood, patients Within reference range: 81%
[4]; Day 5
  Zinc in serum, patients Above reference range: 3%
  Zinc in serum, patients Below reference range: 80%
  Zinc in serum, patients Within reference range: 17%
  Zinc in whole blood, patients Above reference range: 6%
  Zinc in whole blood, patients Below reference range: 17%
  Zinc in whole blood, patients Within reference range: 77%
[4]; Day 6
  Zinc in serum, patients Above reference range: 4%
  Zinc in serum, patients Below reference range: 68%
  Zinc in serum, patients Within reference range: 29%
  Zinc in whole blood, patients Above reference range: 4%
  Zinc in whole blood, patients Below reference range: 7%
  Zinc in whole blood, patients Within reference range: 89%
[4]; Day 7
  Zinc in serum, patients Above reference range: 0%
  Zinc in serum, patients Below reference range: 63%
  Zinc in serum, patients Within reference range: 38%
  Zinc in whole blood, patients Above reference range: 8%
  Zinc in whole blood, patients Below reference range: 8%
  Zinc in whole blood, patients Within reference range: 83%
[4]; Day 8
  Zinc in serum, patients Above reference range: 0%
  Zinc in serum, patients Below reference range: 50%
  Zinc in serum, patients Within reference range: 50%
  Zinc in whole blood, patients Above reference range: 8%
  Zinc in whole blood, patients Below reference range: 4%
  Zinc in whole blood, patients Within reference range: 88%
[4]; Day 9
  Zinc in serum, patients Above reference range: 4%
  Zinc in serum, patients Below reference range: 43%
  Zinc in serum, patients Within reference range: 52%
  Zinc in whole blood, patients Above reference range: 9%
  Zinc in whole blood, patients Below reference range: 0%
  Zinc in whole blood, patients Within reference range: 91%
[4]; Day 10
  Zinc in serum, patients Above reference range: 5%
  Zinc in serum, patients Below reference range: 33%
  Zinc in serum, patients Within reference range: 62%
  Zinc in whole blood, patients Above reference range: 5%
  Zinc in whole blood, patients Below reference range: 0%
  Zinc in whole blood, patients Within reference range: 95%
[4]; Day 11
  Zinc in serum, patients Above reference range: 16%
  Zinc in serum, patients Below reference range: 16%
  Zinc in serum, patients Within reference range: 68%
  Zinc in whole blood, patients Above reference range: 11%
  Zinc in whole blood, patients Below reference range: 0%
  Zinc in whole blood, patients Within reference range: 89%
[4]; Day 12
  Zinc in serum, patients Above reference range: 7%
  Zinc in serum, patients Below reference range: 20%
  Zinc in serum, patients Within reference range: 73%
  Zinc in whole blood, patients Above reference range: 7%
  Zinc in whole blood, patients Below reference range: 7%
  Zinc in whole blood, patients Within reference range: 87%
[4]; Day 13
  Zinc in serum, patients Above reference range: 14%
  Zinc in serum, patients Below reference range: 7%
  Zinc in serum, patients Within reference range: 79%
  Zinc in whole blood, patients Above reference range: 7%
  Zinc in whole blood, patients Below reference range: 7%
  Zinc in whole blood, patients Within reference range: 86%
[4]; Day 14
  Zinc in serum, patients Above reference range: 0%
  Zinc in serum, patients Below reference range: 8%
  Zinc in serum, patients Within reference range: 92%
  Zinc in whole blood, patients Above reference range: 0%
  Zinc in whole blood, patients Below reference range: 0%
  Zinc in whole blood, patients Within reference range: 100%
[4]; Day 15
  Zinc in serum, patients Above reference range: 0%
  Zinc in serum, patients Below reference range: 8%
  Zinc in serum, patients Within reference range: 92%
  Zinc in whole blood, patients Above reference range: 8%
  Zinc in whole blood, patients Below reference range: 0%
  Zinc in whole blood, patients Within reference range: 92%
[4]; Day 16
  Zinc in serum, patients Above reference range: 0%
  Zinc in serum, patients Below reference range: 9%
  Zinc in serum, patients Within reference range: 91%
  Zinc in whole blood, patients Above reference range: 9%
  Zinc in whole blood, patients Below reference range: 0%
  Zinc in whole blood, patients Within reference range: 91%
[4]; Day 17
  Zinc in serum, patients Above reference range: 10%
  Zinc in serum, patients Below reference range: 10%
  Zinc in serum, patients Within reference range: 80%
  Zinc in whole blood, patients Above reference range: 10%
  Zinc in whole blood, patients Below reference range: 0%
  Zinc in whole blood, patients Within reference range: 90%
[4]; Day 18
  Zinc in serum, patients Above reference range: 10%
  Zinc in serum, patients Below reference range: 10%
  Zinc in serum, patients Within reference range: 80%
  Zinc in whole blood, patients Above reference range: 20%
  Zinc in whole blood, patients Below reference range: 0%
  Zinc in whole blood, patients Within reference range: 80%
[4]; patients with normal whole blood zinc receiving zinc, even high administration
  Zinc level in the serum: scarcely influenced
[4]; [9]
  Zinc in serum, patients Above reference range: 14%
  Zinc in serum, patients Below reference range: 38%
  Zinc in serum, patients Within reference range: 49%
  Zinc in whole blood, patients Above reference range: 7%
  Zinc in whole blood, patients Below reference range: 5%
  Zinc in whole blood, patients Within reference range: 88%
Humans [5]; 150 mg of zinc a day over 2 years
  Effect of repeated administration: copper deficiency
Humans [5]; 1.5 g zinc over 60 hours
  Outcome of inadvertent intravenous infusion: ended fatally
Humans [5]; [10]
  HDL cholesterol level: significantly reduced
  Total cholesterol, triglycerides and LDL cholesterol: normal levels
Humans [5]; healthy young women, 100 mg daily for 8 weeks
  Effect on the blood lipid levels: no effect
Humans [5]; toxic range not starting until quantities in the grams
  Toxicity: low toxicity
[6]; humans
  Concentration in the cerebral spinal fluid relative to plasma concentration: a tenth
[6]; in vivo
  Portion excreted through the faeces: 90%
[6]; physiological conditions, roughly
  Portion resorbed from the nourishment: 20-30%

## O=S(=O)([O-])[O-].[Zn+2] [ZnSO4]
Humans [5]; adults
  Dose considered deadly for adults: 5 g
Humans [5]; in vivo
  Dose resulting in vomiting: 1 to 2 g
Humans [5]; total 7.4 g zinc within 60 hours
  Outcome of inadvertent intravenous infusion: death

## O=[74Se]([O-])[O-].[Na+].[Na+] [[^74Se] sodium selenite]
[1]; intravenous 82 μg of selenium, first 24 hours
  Dose excreted: 18%
[1]; peroral administration, first 24 hours
  Absorbed dose excreted through the urine: 12%

## O=[75Se]([O-])[O-].[Na+].[Na+] [[^75Se] sodium selenite]
[1]; intravenous, first 24 hours
  Dose excreted: 12%
[1]; intravenous
  Additional portion of dose eliminated in second phase: 40%
  Biological half-life of second phase: 20 days
  Half-life of the third phase: 115 days
[1]; oral 10 μg, first two weeks
  Absorbed dose excreted through the urine: 14-20%
[1]; oral 10 μg
  Half-life of total body retention, 1st phase: 0.7 to 1.2 days
  Half-life of total body retention, 2nd phase: 7 to 11 days
  Half-life of total body retention, 3rd phase: 96 to 144 days

## [Zn] [elementary zinc]
Humans [5]; 12 g/d for 2 days, child
  Symptoms after ingestion: recklessness, lethargy and dysgraphia

## O=[Se](O)O [selenous acid]
Humans [2]; two children, 10-15 ml weapon-cleaning agent with approx. 1.8% selenous acid, roughly 110 mg selenium
  Outcome of acute selenium poisoning: died

## O=[Se](O)O [sodium selenite]
rats
  LD50: 5.7 mg/kg BW
[7]
  Absorption, average portion: 62±14%
Humans [2]; four persons, 2 mg selenium a day for 20-40 days
  Indications of selenium poisoning: did not result in any indications of selenium poisoning
Humans [2]; in vivo
  Chronic toxicity: 3-7 mg of selenium/day
  Whole blood concentration at which first symptoms of poisoning manifest: 1.05 mg of selenium/l whole blood
Humans [2]; long-term use (longer than three months)
  Dosage seen as harmless: up to 550 μg of selenium a day
Humans [2]; peroral 50 μg selenium per kg bodyweight over one year, patients with neuronal ceroid lipofuscinosis
  Symptoms of selenium poisoning: no symptoms of selenium poisoning were observed
Humans [2]; person, 2 mg sodium selenite (900 μg selenium) daily for more than two years
  Symptoms of chronic poisoning: fingernails were thickened and brittle
Humans [2]; person, approx. 27 mg selenium a day for approx. two months
  Symptoms of poisoning: suffered from lassitude, nausea, vomiting, depression, bad breath, hair loss and nails that fell off
[8]
  Acute toxicity: 1-5 mg of selenium per kg BW
Guinea pigs
  LD50: 2.3 mg/kg BW
rabbits; intravenous administration
  LD50: 0.9 mg/kg BW
rabbits; peroral administration
  LD50: 2.25 mg/kg BW
mice; intravenous administration
  LD50: 2.2 mg of selenium/kg BW
mice; peroral administration
  LD50: 3.2-3.5 mg/kg BW
